According to PubChem BioAssay AID1259411 (Chemical Carcinogenesis Research Information System (CCRIS), 2018):
Active and inactive are the calls of the source. The rule behind the calls is not given here.

Tested on: rodent carcinogenicity bioassays, tumor incidence
Experiment: CCRIS carcinogenicity studies
Method in brief: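 Archive of carcinogenicity, mutagenicity, tumor promotion and tumor inhibition results drawn from journals, NCI reports and other sources, expert-reviewed; covers 1985-2011 and is no longer updated.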

With `Cn1c(N)nc2ncc(-c3ccccc3)cc21` the carcinogen call (Species: HAMSTER, Strain/Sex: RAPID ACETYLATOR CONGENIC/MALE, Route: ORAL, Dose: 75 MG/KG BW/DOSE BY GAVAGE, 2 DOSES/WK FOR 4 WK FOLLOWED BY 1 DOSE/WK FOR 1 WK AND 1 DOSE/2 WK FOR 4 WK, FOLLOWED BY A H) was “inactive; negative”, the carcinogen call (Species: HAMSTER, Strain/Sex: SLOW ACETYLATOR CONGENIC/MALE, Route: ORAL, Dose: 75 MG/KG BW/DOSE BY GAVAGE, 2 DOSES/WK FOR 4 WK FOLLOWED BY 1 DOSE/WK FOR 1 WK AND 1 DOSE/2 WK FOR 4 WK, FOLLOWED BY A H) was “inactive; negative” and the carcinogen call (Species: MOUSE, Strain/Sex: B6C3F1/MALE, Route: INTRAPERITONEAL, Dose: 0, 0.625 UMOL IN 35 µL DMSO ON D 1, 8, AND 15 AFTER BIRTH (STUDY DURATION: 8 MO)) was “inactive; negative”. For the same compound, the carcinogen call (Species: MOUSE, Strain/Sex: B6C3F1/MALE, Route: INTRAPERITONEAL, Dose: 0, 0.625 UMOL IN 35 µL DMSO ON D 1, 8, AND 15 AFTER BIRTH (STUDY DURATION: 12 MO), Tumor Site: Type of Lesion: LIVER: HEPATOCELLULAR ADENOMA) was “active; positive”, the carcinogen call (Species: MOUSE, Strain/Sex: B6C3F1/MALE, Route: INTRAPERITONEAL, Dose: 0, 1.25 UMOL IN 35 µL DMSO ON D 1, 8, AND 15 AFTER BIRTH (STUDY DURATION: 8 MO), Tumor Site: Type of Lesion: LIVER: HEPATOCELLULAR ADENOMA) was “active; positive” and the carcinogen call (Species: MOUSE, Strain/Sex: B6C3F1/MALE, Route: INTRAPERITONEAL, Dose: 0, 1.25 UMOL IN 35 µL DMSO ON D 1, 8, AND 15 AFTER BIRTH (STUDY DURATION: 12 MO), Tumor Site: Type of Lesion: LIVER: HEPATOCELLULAR ADENOMA, HEPATOCELLULAR CARCINOMA) was “active; positive”. The carcinogen call (Species: MOUSE, Strain/Sex: C57/FEMALE, Route: ORAL, Dose: 0, 300 PPM IN HIGH FAT DIET FOR 40 WK, FOLLOWED BY CONTINUOUS FEEDING OF HIGH FAT DIET UNTIL STUDY TERMINATION (STUDY DU, Tumor Site: Type of Lesion: SMALL INTESTINE: ADENOCARCINOMAS OR ADENOMAS) was “active; positive”, the carcinogen call (Species: MOUSE, Strain/Sex: C57/MALE, Route: ORAL, Dose: 0, 300 PPM IN HIGH FAT DIET FOR 40 WK, FOLLOWED BY CONTINUOUS FEEDING OF HIGH FAT DIET UNTIL STUDY TERMINATION (STUDY DU, Tumor Site: Type of Lesion: SMALL INTESTINE: ADENOCARCINOMAS OR ADENOMAS, LYMPHATIC SYSTEM: LYMPHOMA) was “active; positive” and the carcinogen call (Species: MOUSE, Strain/Sex: CDF1/FEMALE, Route: ORAL, Dose: 0, 0.04% IN THE DIET FOR DURATION OF STUDY (STUDY DURATION: 579 D), Tumor Site: Type of Lesion: HEMATOPOIETIC SYSTEM: LYMPHOMA) was “active; positive”. For the same compound, the carcinogen call (Species: MOUSE, Strain/Sex: CDF1/MALE, Route: ORAL, Dose: 0, 0.04% IN THE DIET FOR DURATION OF STUDY (STUDY DURATION: 579 D), Tumor Site: Type of Lesion: HEMATOPOIETIC SYSTEM: LYMPHOMA) was “active; positive”, the carcinogen call (Species: MOUSE, Strain/Sex: EU-PIM-1/FEMALE, Route: ORAL, Dose: 0, 0.03% IN DIET FOR 31 WK (STUDY DURATION: 31 WK)) was “inactive; negative” and the carcinogen call (Species: MOUSE, Strain/Sex: EU-PIM-1/MALE, Route: ORAL, Dose: 0, 0.03% IN DIET FOR 31 WK (STUDY DURATION: 31 WK)) was “inactive; negative”. The carcinogen call (Species: MOUSE, Strain/Sex: NON-TRANSGENIC WILD-TYPE/FEMALE, Route: ORAL, Dose: 0, 0.03% IN DIET FOR 31 WK (STUDY DURATION: 31 WK)) was “inactive; negative”, the carcinogen call (Species: MOUSE, Strain/Sex: NON-TRANSGENIC WILD-TYPE/MALE, Route: ORAL, Dose: 0, 0.03% IN DIET FOR 31 WK (STUDY DURATION: 31 WK)) was “inactive; negative” and the carcinogen call (Species: MOUSE, Strain/Sex: TRANSGENIC EU-PIM-1/FEMALE, Route: ORAL, Dose: 0, 0.03% IN DIET FOR 31 WK (STUDY DURATION: 31 WK), Tumor Site: Type of Lesion: LYMPHATIC SYSTEM: LYMPHOMA) was “active; positive”. The carcinogen call (Species: MOUSE, Strain/Sex: TRANSGENIC EU-PIM-1/MALE, Route: ORAL, Dose: 0, 0.03% IN DIET FOR 31 WK (STUDY DURATION: 31 WK)) was “inactive; negative”, the carcinogen call (Species: MOUSE, Strain/Sex: WILD-TYPE/FEMALE, Route: ORAL, Dose: 0, 0.03% IN DIET FOR 31 WK (STUDY DURATION: 31 WK)) was “inactive; negative” and the carcinogen call (Species: MOUSE, Strain/Sex: WILD-TYPE/MALE, Route: ORAL, Dose: 0, 0.03% IN DIET FOR 31 WK (STUDY DURATION: 31 WK)) was “inactive; negative”. For the same compound, the carcinogen call (Species: RAT, Strain/Sex: F344/FEMALE, Route: ORAL, Dose: 0, 25, 100 PPM IN DIET FOR 104 WK (STUDY DURATION: 104 WK), Dose: 0, 25, 100 PPM IN DIET FOR 104 WK (STUDY DURATION: 104 WK), Tumor Site: Type of Lesion: MAMMARY GLAND: ADENOCARCINOMA) was “active; positive”, the carcinogen call (Species: RAT, Strain/Sex: F344/FEMALE, Route: ORAL, Dose: 0, 400 PPM IN DIET FOR 52 WK (STUDY DURATION: 52 WK), Tumor Site: Type of Lesion: MAMMARY GLAND: ADENOCARCINOMA) was “active; positive” and the carcinogen call (Species: RAT, Strain/Sex: F344/MALE, FEMALE, Route: MATERNAL MILK, Dose: 200 PPM IN DIET TO MOTHERS FROM D OF MATING TO WEANING, THEN OFFSPRING ON CONTROL DIET FOR 60 WKS (STUDY DURATION: 63 WK) was “inactive; negative; prostate and colon tumors not enhanced; multiplicity of aberrant crypt”. The carcinogen call (Species: RAT, Strain/Sex: F344/MALE, Route: ORAL, Dose: 0, 25, 100 PPM IN DIET FOR 104 WK (STUDY DURATION: 104 WK), Dose: 0, 25, 100 PPM IN DIET FOR 104 WK (STUDY DURATION: 104 WK), Tumor Site: Type of Lesion: COLON: CARCINOMA) was “active; positive”, the carcinogen call (Species: RAT, Strain/Sex: F344/MALE, Route: ORAL, Dose: 0, 100, 300 PPM IN DIET FOR 40 WK (STUDY DURATION: 40 WK), Dose: 0, 100, 300 PPM IN DIET FOR 40 WK (STUDY DURATION: 40 WK), Tumor Site: Type of Lesion: PROSTATE (VENTRAL): PROSTATIC INTRAEPITHELIAL NEOPLASIA) was “active; positive” and the carcinogen call (Species: RAT, Strain/Sex: F344/MALE, Route: ORAL, Dose: 0, 400 PPM IN DIET FOR 52 WK (STUDY DURATION: 52 WK), Tumor Site: Type of Lesion: COLON: ADENOCARCINOMA) was “active; positive”. The carcinogen call (Species: RAT, Strain/Sex: F344/MALE, Route: ORAL, Dose: 0, 400 PPM IN DIET FOR 52 WK (STUDY DURATION: 52 WK), Tumor Site: Type of Lesion: PROSTATE (VENTRAL): CARCINOMA) was “active; positive”, the carcinogen call (Species: RAT, Strain/Sex: SPRAGUE DAWLEY/FEMALE, 43 D OLD, Route: ORAL, Dose: 75 MG/DOSE, 10 DOSES GIVEN ONCE/D OVER 12 D (STUDY DURATION: 6 MO), Tumor Site: Type of Lesion: MAMMARY GLAND) was “active; positive (5% incidence)” and the carcinogen call (Species: RAT, Strain/Sex: SPRAGUE DAWLEY/FEMALE, 150 D OLD, Route: ORAL, Dose: 75 MG/DOSE, 10 DOSES GIVEN ONCE/D OVER 12 D (STUDY DURATION: 6 MO), Tumor Site: Type of Lesion: MAMMARY GLAND) was “inactive; negative (0% incidence)”. The carcinogen call (Species: RAT, Strain/Sex: SPRAGUE-DAWLEY/FEMALE, Route: ORAL, Dose: 0, 12.5, 50 PPM IN DIET FOR DURATION OF STUDY (STUDY DURATION: 48 WK), Dose: 0, 12.5, 50 PPM IN DIET FOR DURATION OF STUDY (STUDY DURATION: 48 WK), Tumor Site: Type of Lesion: MAMMARY GLAND: TUMOR) was “active; positive”, the carcinogen call (Species: RAT, Strain/Sex: SPRAGUE-DAWLEY/FEMALE, Route: ORAL, Dose: 0, 25, 100, 200 PPM IN DIET FOR 48 WK (STUDY DURATION: 48 WK), Dose: 0, 25, 100, 200 PPM IN DIET FOR 48 WK (STUDY DURATION: 48 WK), Tumor Site: Type of Lesion: MAMMARY GLAND: TUMOR) was “active; positive” and the carcinogen call (Species: RAT, Strain/Sex: SPRAGUE-DAWLEY/FEMALE, Route: ORAL, Dose: 0, 25, 100, 200 PPM IN DIET FOR DURATION OF STUDY (STUDY DURATION: 48 WK), Dose: 0, 25, 100, 200 PPM IN DIET FOR DURATION OF STUDY (STUDY DURATION: 48 WK), Tumor Site: Type of Lesion: MAMMARY GLAND: TUMOR) was “active; positive”. The carcinogen call (Species: RAT, Strain/Sex: SPRAGUE-DAWLEY/FEMALE, Route: ORAL, Dose: 0, 25, 100 PPM IN DIET FROM WEANING TO 47 WK OF AGE (STUDY DURATION: 47 WK), Dose: 0, 25, 100 PPM IN DIET FROM WEANING TO 47 WK OF AGE (STUDY DURATION: 47 WK), Tumor Site: Type of Lesion: MAMMARY GLAND: TUMOR) was “active; positive”, the carcinogen call (Species: RAT, Strain/Sex: SPRAGUE-DAWLEY/FEMALE, Route: ORAL, Dose: 0, 75 MG/KG IN 5 ML CORN OIL 1/D ON DAYS 1-5 AND 8-12 OF STUDY FOLLOWED 2 DAYS LATER BY A HIGH-FAT DIET FOR DURATION OF, Tumor Site: Type of Lesion: MAMMARY GLAND: TUMOR) was “active; positive” and the carcinogen call (Species: RAT, Strain/Sex: SPRAGUE-DAWLEY/FEMALE, Route: TRANSPLACENTAL, ORAL, Dose: 0, 100 PPM IN DIET OF MOTHERS BEGINNING 4 WK BEFORE MATING AND CONTINUING THROUGH LACTATION THEN OFFSPRING ADMINISTERED, Tumor Site: Type of Lesion: MAMMARY GLAND: TUMOR) was “active; positive”. For the same compound, the carcinogen call (Species: RAT, Strain/Sex: SPRAGUE-DAWLEY/MALE, Route: ORAL, Dose: 0, 25, 100 PPM IN DIET FROM WEANING TO 47 WK OF AGE (STUDY DURATION: 47 WK), Dose: 0, 25, 100 PPM IN DIET FROM WEANING TO 47 WK OF AGE (STUDY DURATION: 47 WK)) was “inactive; negative”, the carcinogen call (Species: RAT, Strain/Sex: SPRAGUE-DAWLEY/MALE, Route: TRANSPLACENTAL, ORAL, Dose: 0, 100 PPM IN DIET OF MOTHERS BEGINNING 4 WK BEFORE MATING AND CONTINUING THROUGH LACTATION THEN OFFSPRING ADMINISTERED) was “inactive; negative” and the carcinogen call (Species: RAT, Strain/Sex: STRAIN-CD/FEMALE, Route: GAVAGE, Dose: 0, 50 UMOL IN 0.5 ML TRIOCTANOIN 1/WK FOR 8 WK (STUDY DURATION: 49 WK), Tumor Site: Type of Lesion: MAMMARY GLAND: FIBROADENOMA, ADENOCARCINOMA) was “active; positive”.
